Experimental data reported in PubChem BioAssay AID2060619 (Molecular Pharmacology Branch, DTP, NCI, 2025).
Several values for one entry are separate records, joined by “and”; a condition that tells them apart may be missing. Equal entries are not always repeated.

Tested on: 323965-272-R-J2-PDC complex spheroid viability
Experiment: Anticancer human tumor 323965-272-R-J2-PDC patient-derived pancreatic carcinoma cell line growth inhibition [CLK]
Settings: for viability, T/C: stronger effect = lower value; active = viability on the fitted dose curve at most 10% of control; inactive = the rest
Outline: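 Multi-cell-type spheroids combined patient-derived tumor cells with HUVEC endothelial cells and human mesenchymal stem cells. Paired agents were dosed in half-log steps down from about clinical Cmax, or from 10 microM where Cmax was unknown.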

[1] = curve of first compound, second compound 0.0316 µM
[2] = curve of first compound, second compound 0.1 µM
[3] = curve of first compound, second compound 0.316 µM
[4] = curve of first compound, second compound 1 µM
[5] = curve of first compound, second compound 3.16 µM
[6] = curve of first compound, second compound 10 µM
[7] = second compound 0.0316 µM, first compound 0.0316 µM
[8] = second compound 0.0316 µM, first compound 0.1 µM
[9] = second compound 0.0316 µM, first compound 0.316 µM
[10] = second compound 0.0316 µM, first compound 1 µM
[11] = second compound 0.0316 µM, first compound 3.16 µM
[12] = second compound 0.0316 µM, first compound 10 µM
[13] = second compound 0.1 µM, first compound 0.0316 µM
[14] = second compound 0.1 µM, first compound 0.1 µM
[15] = second compound 0.1 µM, first compound 0.316 µM
[16] = second compound 0.1 µM, first compound 1 µM
[17] = second compound 0.1 µM, first compound 3.16 µM
[18] = second compound 0.1 µM, first compound 10 µM
[19] = second compound 0.316 µM, first compound 0.0316 µM
[20] = second compound 0.316 µM, first compound 0.1 µM
[21] = second compound 0.316 µM, first compound 0.316 µM
[22] = second compound 0.316 µM, first compound 1 µM
[23] = second compound 0.316 µM, first compound 3.16 µM
[24] = second compound 0.316 µM, first compound 10 µM
[25] = second compound 1 µM, first compound 0.0316 µM
[26] = second compound 1 µM, first compound 0.1 µM
[27] = second compound 1 µM, first compound 0.316 µM
[28] = second compound 1 µM, first compound 1 µM
[29] = second compound 1 µM, first compound 3.16 µM
[30] = second compound 1 µM, first compound 10 µM
[31] = second compound 3.16 µM, first compound 0.0316 µM
[32] = second compound 3.16 µM, first compound 0.1 µM
[33] = second compound 3.16 µM, first compound 0.316 µM
[34] = second compound 3.16 µM, first compound 1 µM
[35] = second compound 3.16 µM, first compound 3.16 µM
[36] = second compound 3.16 µM, first compound 10 µM
[37] = second compound 10 µM, first compound 0.0316 µM
[38] = second compound 10 µM, first compound 0.1 µM
[39] = second compound 10 µM, first compound 0.316 µM
[40] = second compound 10 µM, first compound 1 µM
[41] = second compound 10 µM, first compound 3.16 µM
[42] = second compound 10 µM, first compound 10 µM
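Note: spheroids exposed to agents for seven days before readout.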
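Throughout, for viability, T/C: percent of DMSO vehicle control wells so 100% = untreated growth.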

CC(Nc1ccc2c(c1)OCCn1cc(N3C(=O)OCC3C(F)F)nc1-2)C(N)=O (stereo not given) + CN1CCN(c2cc(C(=O)Nc3cc4cc(-c5cnn(C)c5)ccc4cn3)ccn2)CC1
active: viability, T/C [25] 3.27% | viability, T/C [26] 4.12% | viability, T/C [27] 3.78% | viability, T/C [28] 2.98% | viability, T/C [29] 2.66% | viability, T/C [30] 2.88% | viability, T/C [31] 3.35% | viability, T/C [32] 3.08% | viability, T/C [33] 2.69% | viability, T/C [34] 2.63% | viability, T/C [35] 2.26% | viability, T/C [36] 2.14% | viability, T/C [37] 2.98% | viability, T/C [38] 3.37% | viability, T/C [39] 3.23% | viability, T/C [40] 2.97% | viability, T/C [41] 3.87% | viability, T/C [42] 2.96%
inactive: viability, T/C [7] 91.5% | viability, T/C [8] 78.7% | viability, T/C [9] 79% | viability, T/C [10] 65.6% | viability, T/C [11] 55.3% | viability, T/C [12] 48% | viability, T/C [13] 67.6% | viability, T/C [14] 58.3% | viability, T/C [15] 50% | viability, T/C [16] 45.1% | viability, T/C [17] 37.5% | viability, T/C [18] 36.7% | viability, T/C [19] 27.5% | viability, T/C [20] 23.4% | viability, T/C [21] 18% | viability, T/C [22] 19.1% | viability, T/C [23] 19.2% | viability, T/C [24] 14.3%
< 31.6 nM: IC50 [3] | IC50 [4] | IC50 [5] | IC50 [6]
7280 nM: IC50 [1]
327 nM: IC50 [2]

CCCS(=O)(=O)Nc1ccc(F)c(C(=O)c2c[nH]c3ncc(-c4ccc(Cl)cc4)cc23)c1F + CNC(=O)c1ccc(Nc2nc(OC3CCCC3)c3c(-c4ccc5nc(C)oc5c4)c[nH]c3n2)c(OC)c1
< 31.6 nM: IC50 [5] | IC50 [6]
inactive: viability, T/C [7] 106% | viability, T/C [8] 113% | viability, T/C [9] 116% | viability, T/C [10] 127% | viability, T/C [11] 127% | viability, T/C [12] 106% | viability, T/C [13] 94.3% | viability, T/C [14] 88.2% | viability, T/C [15] 97.5% | viability, T/C [16] 98.3% | viability, T/C [17] 90% | viability, T/C [18] 79.9% | viability, T/C [19] 72.5% | viability, T/C [20] 74.8% | viability, T/C [21] 78% | viability, T/C [22] 78.8% | viability, T/C [23] 88.8% | viability, T/C [24] 72% | viability, T/C [25] 47.8% | viability, T/C [26] 59.6% | viability, T/C [27] 64.8% | viability, T/C [28] 71% | viability, T/C [29] 60.9% | viability, T/C [30] 60.2% | viability, T/C [31] 47.6% | viability, T/C [32] 54.7% | viability, T/C [33] 53.6% | viability, T/C [34] 49.2% | viability, T/C [35] 61.5% | viability, T/C [36] 59.2% | viability, T/C [37] 42.5% | viability, T/C [38] 50.6% | viability, T/C [39] 47.8% | viability, T/C [40] 58.8% | viability, T/C [41] 67.2% | viability, T/C [42] 61.4%
> 10000 nM: IC50 [1] | IC50 [2] | IC50 [3] | IC50 [4]

CC(C)CC(NC(=O)C(Cc1ccccc1)NC(=O)c1cnccn1)B(O)O (stereo not given) + CNC(=O)c1ccc(Nc2nc(OC3CCCC3)c3c(-c4ccc5nc(C)oc5c4)c[nH]c3n2)c(OC)c1
active: viability, T/C (second compound 0.0316 µM, first compound 0.00949 µM) 3.74% | viability, T/C (second compound 0.0316 µM, first compound 0.03 µM) 0.63% | viability, T/C (second compound 0.0316 µM, first compound 0.0949 µM) 0.4% | viability, T/C (second compound 0.0316 µM, first compound 0.3 µM) 1.5% | viability, T/C (second compound 0.1 µM, first compound 0.00949 µM) 3.57% | viability, T/C (second compound 0.1 µM, first compound 0.03 µM) 0.66% | viability, T/C (second compound 0.1 µM, first compound 0.0949 µM) 0.72% | viability, T/C (second compound 0.1 µM, first compound 0.3 µM) 3.02% | viability, T/C (second compound 0.316 µM, first compound 0.00949 µM) 3.56% | viability, T/C (second compound 0.316 µM, first compound 0.03 µM) 0.65% | viability, T/C (second compound 0.316 µM, first compound 0.0949 µM) 0.61% | viability, T/C (second compound 0.316 µM, first compound 0.3 µM) 0.43% | viability, T/C (second compound 1 µM, first compound 0.00949 µM) 3.86% | viability, T/C (second compound 1 µM, first compound 0.03 µM) 0.86% | viability, T/C (second compound 1 µM, first compound 0.0949 µM) 1.19% | viability, T/C (second compound 1 µM, first compound 0.3 µM) 1.58% | viability, T/C (second compound 3.16 µM, first compound 0.00949 µM) 1.87% | viability, T/C (second compound 3.16 µM, first compound 0.03 µM) 0.28% | viability, T/C (second compound 3.16 µM, first compound 0.0949 µM) 0.73% | viability, T/C (second compound 3.16 µM, first compound 0.3 µM) 1.18% | viability, T/C (second compound 10 µM, first compound 0.00949 µM) 1.13% | viability, T/C (second compound 10 µM, first compound 0.03 µM) 0.33% | viability, T/C (second compound 10 µM, first compound 0.0949 µM) 0.86% | viability, T/C (second compound 10 µM, first compound 0.3 µM) 2.07%
< 0.949 nM: IC50 [5]
3.11 nM: IC50 [3]
1.72 nM: IC50 [4]
1.02 nM: IC50 [6]
3.84 nM: IC50 [2]
inactive: viability, T/C (second compound 0.0316 µM, first compound 0.000949 µM) 144% | viability, T/C (second compound 0.0316 µM, first compound 0.003 µM) 57.1% | viability, T/C (second compound 0.1 µM, first compound 0.000949 µM) 97.1% | viability, T/C (second compound 0.1 µM, first compound 0.003 µM) 62.7% | viability, T/C (second compound 0.316 µM, first compound 0.000949 µM) 77.6% | viability, T/C (second compound 0.316 µM, first compound 0.003 µM) 51.5% | viability, T/C (second compound 1 µM, first compound 0.000949 µM) 62.9% | viability, T/C (second compound 1 µM, first compound 0.003 µM) 38% | viability, T/C (second compound 3.16 µM, first compound 0.000949 µM) 48.7% | viability, T/C (second compound 3.16 µM, first compound 0.003 µM) 28.7% | viability, T/C (second compound 10 µM, first compound 0.000949 µM) 51.6% | viability, T/C (second compound 10 µM, first compound 0.003 µM) 24.5%
3.5 nM: IC50 [1]

C#Cc1c(F)ccc2cc(O)cc(-c3ncc4c(N5CC6CCC(C5)N6)nc(OCC56CCCN5CC(F)C6)nc4c3F)c12 (stereo not given) + CN1CCN(c2cc(C(=O)Nc3cc4cc(-c5cnn(C)c5)ccc4cn3)ccn2)CC1
< 31.6 nM: IC50 [3] | IC50 [4] | IC50 [5] | IC50 [6]
3050 nM: IC50 [2]
> 10000 nM: IC50 [1]
inactive: viability, T/C [7] 101% | viability, T/C [8] 101% | viability, T/C [9] 101% | viability, T/C [10] 95.8% | viability, T/C [11] 67.1% | viability, T/C [12] 50.9% | viability, T/C [13] 68.8% | viability, T/C [14] 73.2% | viability, T/C [15] 71.1% | viability, T/C [16] 63.3% | viability, T/C [17] 49.9% | viability, T/C [18] 42.6% | viability, T/C [19] 28.4% | viability, T/C [20] 25.6% | viability, T/C [21] 24.8% | viability, T/C [22] 22.9% | viability, T/C [23] 17.8% | viability, T/C [24] 15.1%
active: viability, T/C [25] 3.55% | viability, T/C [26] 3.52% | viability, T/C [27] 3.35% | viability, T/C [28] 3.07% | viability, T/C [29] 2.52% | viability, T/C [30] 2.87% | viability, T/C [31] 3.72% | viability, T/C [32] 4.19% | viability, T/C [33] 3.39% | viability, T/C [34] 3.07% | viability, T/C [35] 3.51% | viability, T/C [36] 5.09% | viability, T/C [37] 4.24% | viability, T/C [38] 4.08% | viability, T/C [39] 5.09% | viability, T/C [40] 3.16% | viability, T/C [41] 3.48% | viability, T/C [42] 3.19%

Nc1ccn(C2OC(CO)C(O)C2(F)F)c(=O)n1 (stereo not given)
< 31.6 nM: IC50 (curve of compound)
inactive: viability, T/C (compound 0.0316 µM) 30.7% and 33.9% | viability, T/C (compound 0.1 µM) 35.3% and 38.5% | viability, T/C (compound 0.316 µM) 30% and 29.5% | viability, T/C (compound 1 µM) 37.3% and 32.3% | viability, T/C (compound 3.16 µM) 32.7% and 31.5% | viability, T/C (compound 10 µM) 28.6% and 33.3%
